Laboratory results as given in publication PMC5218480 (PLoS ONE, 2017).

Test system: MV-4-11 cells
Assay: Gene expression microarray analysis (Affymetrix PrimeView) and GSEA
Format: cell-based, human
Set-up: RFU PODN (11730768_x_at) / Fold change /veh PODN (11730768_x_at) / RFU LINC00158 (11744669_a_at) / Fold change /veh LINC00158 (11744669_a_at) / RFU DUSP10 (11751237_a_at) / Fold change /veh DUSP10 (11751237_a_at) / RFU ID3 (11757404_x_at) / Fold change /veh ID3 (11757404_x_at) / RFU PLEKHG5 (11737974_s_at) / Fold change /veh PLEKHG5 (11737974_s_at) / RFU LRRC4B (11730491_at) / Fold change /veh LRRC4B (11730491_at) / RFU GIMAP4 (11747438_a_at) / Fold change /veh GIMAP4 (11747438_a_at) / RFU KRT8 (11758183_x_at) / Fold change /veh KRT8 (11758183_x_at) / RFU CNN1 (11734310_a_at) / Fold change /veh CNN1 (11734310_a_at) / RFU VPS37D (11726825_at) / Fold change /veh VPS37D (11726825_at) / RFU C10orf10 (11716522_x_at) / Fold change /veh C10orf10 (11716522_x_at) / RFU KIR2DL2 /// KIR2DL4 /// KIR2DL5A /// KIR2DL5B /// KIR2DS1 /// KIR2DS2 /// KIR2DS3 /// KIR2DS4 /// KIR3DL3 /// KIR3DL3 /// KIR3DS1 (11738374_at) / Fold change /veh KIR2DL2 /// KIR2DL4 /// KIR2DL5A /// KIR2DL5B /// KIR2DS1 /// KIR2DS2 /// KIR2DS3 /// KIR2DS4 /// KIR3DL3 /// KIR3DL3 /// KIR3DS1 (11738374_at) / RFU C1QL1 (11718748_at) / Fold change /veh C1QL1 (11718748_at) / RFU TMPRSS4 (11747572_a_at) / Fold change /veh TMPRSS4 (11747572_a_at) / RFU HAMP (11756126_x_at) / Fold change /veh HAMP (11756126_x_at) / RFU RNFT2 (11725882_a_at) / Fold change /veh RNFT2 (11725882_a_at) / RFU NR4A2 (11747474_a_at) / Fold change /veh NR4A2 (11747474_a_at) / RFU ABCC12 (11746883_a_at) / Fold change /veh ABCC12 (11746883_a_at) / RFU TMEM136 (11760407_x_at) / Fold change /veh TMEM136 (11760407_x_at) / RFU CLDN22 /// WWC2 (11732394_at) / Fold change /veh CLDN22 /// WWC2 (11732394_at) / RFU HLA-DPB1 (11760878_x_at) / Fold change /veh HLA-DPB1 (11760878_x_at) / RFU SPINT1 (11716480_a_at) / Fold change /veh SPINT1 (11716480_a_at) / RFU GAP43 (11754022_s_at) / Fold change /veh GAP43 (11754022_s_at) / RFU A4GNT (11735810_at) / Fold change /veh A4GNT (11735810_at) / RFU PRB3 (11715151_x_at) / Fold change /veh PRB3 (11715151_x_at) / RFU TUBB4B (11761932_at) / Fold change /veh TUBB4B (11761932_at) / RFU CAPN14 (11732068_a_at) / Fold change /veh CAPN14 (11732068_a_at) / RFU TMCC2 (11721928_a_at) / Fold change /veh TMCC2 (11721928_a_at) / RFU IRGQ (11745062_a_at) / Fold change /veh IRGQ (11745062_a_at) / RFU FAM174B (11720279_a_at) / Fold change /veh FAM174B (11720279_a_at) / RFU TMPRSS4 (11748680_a_at) / Fold change /veh TMPRSS4 (11748680_a_at) / RFU FAM212B (11763350_a_at) / Fold change /veh FAM212B (11763350_a_at) / RFU PLEKHG5 (11743358_a_at) / Fold change /veh PLEKHG5 (11743358_a_at) / RFU ZSCAN30 (11745921_a_at) / Fold change /veh ZSCAN30 (11745921_a_at) / RFU CMKLR1 (11741424_a_at) / Fold change /veh CMKLR1 (11741424_a_at) / RFU LOC101060620 /// MAPK8IP1 (11723275_at) / Fold change /veh LOC101060620 /// MAPK8IP1 (11723275_at) / RFU SPTSSB (11747773_x_at) / Fold change /veh SPTSSB (11747773_x_at) / RFU PRSS12 (11739890_at) / Fold change /veh PRSS12 (11739890_at) / RFU BIN1 (11741810_x_at) / Fold change /veh BIN1 (11741810_x_at) / RFU WNT11 (11732464_a_at) / Fold change /veh WNT11 (11732464_a_at) / RFU C10orf10 (11716521_a_at) / Fold change /veh C10orf10 (11716521_a_at) / RFU C5orf56 (11738089_at) / Fold change /veh C5orf56 (11738089_at) / RFU CYB561 (11721691_x_at) / Fold change /veh CYB561 (11721691_x_at) / RFU ANKRD19P (11752326_a_at) / Fold change /veh ANKRD19P (11752326_a_at) / RFU OR2T12 /// OR2T33 /// OR2T8 (11738714_s_at) / Fold change /veh OR2T12 /// OR2T33 /// OR2T8 (11738714_s_at) / RFU VCAN (11748164_a_at) / Fold change /veh VCAN (11748164_a_at) / RFU JSRP1 (11732532_at) / Fold change /veh JSRP1 (11732532_at) / RFU KRTAP10-11 (11738290_x_at) / Fold change /veh KRTAP10-11 (11738290_x_at) / RFU MYO3A (11730013_a_at) / Fold change /veh MYO3A (11730013_a_at) / RFU EBF3 (11725865_a_at) / Fold change /veh EBF3 (11725865_a_at) / RFU CAMK2N1 (11719241_x_at) / Fold change /veh CAMK2N1 (11719241_x_at) / RFU C5orf56 (11738088_a_at) / Fold change /veh C5orf56 (11738088_a_at) / RFU OLFML3 (11715873_a_at) / Fold change /veh OLFML3 (11715873_a_at) / RFU LOC100653217 /// NTM (11731650_a_at) / Fold change /veh LOC100653217 /// NTM (11731650_a_at) / RFU MAPK11 (11762145_a_at) / Fold change /veh MAPK11 (11762145_a_at) / RFU FIZ1 (11724087_x_at) / Fold change /veh FIZ1 (11724087_x_at) / RFU OASL (11726364_x_at) / Fold change /veh OASL (11726364_x_at) / RFU SOX15 (11748057_x_at) / Fold change /veh SOX15 (11748057_x_at) / RFU CD79A (11719716_a_at) / Fold change /veh CD79A (11719716_a_at) / RFU HIST1H1D (11736915_at) / Fold change /veh HIST1H1D (11736915_at) / RFU CASKIN2 (11723855_a_at) / Fold change /veh CASKIN2 (11723855_a_at) / RFU LOC730098 (11760151_x_at) / Fold change /veh LOC730098 (11760151_x_at) / RFU OR4N2 (11742367_at) / Fold change /veh OR4N2 (11742367_at) / RFU PRRT2 (11749266_a_at) / Fold change /veh PRRT2 (11749266_a_at) / RFU SNX32 (11753110_a_at) / Fold change /veh SNX32 (11753110_a_at) / RFU CDHR5 (11726645_a_at) / Fold change /veh CDHR5 (11726645_a_at) / RFU RCAN1 (11760418_a_at) / Fold change /veh RCAN1 (11760418_a_at) / RFU FAM167A (11723789_a_at) / Fold change /veh FAM167A (11723789_a_at) / RFU FAM26E (11764081_at) / Fold change /veh FAM26E (11764081_at) / RFU ISYNA1 (11749810_s_at) / Fold change /veh ISYNA1 (11749810_s_at) / RFU ACY1 (11761880_at) / Fold change /veh ACY1 (11761880_at) / RFU 11764098_at / Fold change /veh 11764098_at / RFU SAMD14 (11745864_x_at) / Fold change /veh SAMD14 (11745864_x_at) / RFU NPB (11741838_a_at) / Fold change /veh NPB (11741838_a_at) / RFU TMPRSS6 (11731388_a_at) / Fold change /veh TMPRSS6 (11731388_a_at) / RFU KRTAP10-2 (11738614_at) / Fold change /veh KRTAP10-2 (11738614_at) / RFU ARHGAP8 /// PRR5-ARHGAP8 (11727945_x_at) / Fold change /veh ARHGAP8 /// PRR5-ARHGAP8 (11727945_x_at) / RFU KRTAP5-7 /// NADSYN1 (11734609_at) / Fold change /veh KRTAP5-7 /// NADSYN1 (11734609_at) / RFU RASL12 (11751679_a_at) / Fold change /veh RASL12 (11751679_a_at) / RFU CDKN2B (11736163_a_at) / Fold change /veh CDKN2B (11736163_a_at) / RFU PRF1 (11729649_at) / Fold change /veh PRF1 (11729649_at) / RFU, ZNF638 /// ZNF638-IT1 / Fold change vs veh, ZNF638 /// ZNF638-IT1 / RFU, PANK3 / Fold change vs veh, PANK3 / RFU, SH3YL1 / Fold change vs veh, SH3YL1 / RFU, ZEB2 / Fold change vs veh, ZEB2 / RFU, NRIP1 / Fold change vs veh, NRIP1 / RFU, PTTG1IP / Fold change vs veh, PTTG1IP / RFU, CAPN2 / Fold change vs veh, CAPN2 / RFU, MED14 / Fold change vs veh, MED14 / RFU, SNORA58 / Fold change vs veh, SNORA58 / RFU, C1orf63 / Fold change vs veh, C1orf63 / RFU, LRRFIP1 / Fold change vs veh, LRRFIP1 / RFU, NDUFAF7 / Fold change vs veh, NDUFAF7 / RFU, SLC12A2 / Fold change vs veh, SLC12A2 / RFU, IBTK / Fold change vs veh, IBTK / RFU, ESF1 / Fold change vs veh, ESF1 / Fold change vs veh, TMEM50B / RFU, TAOK1 / Fold change vs veh, TAOK1 / RFU, ACBD3 / Fold change vs veh, ACBD3 / RFU, TMA16 / Fold change vs veh, TMA16 / RFU, RWDD3 / Fold change vs veh, RWDD3 / RFU, BCAT1 / Fold change vs veh, BCAT1 / RFU, EDEM3 / Fold change vs veh, EDEM3 / RFU, TMEM33 / Fold change vs veh, TMEM33 / RFU, WDR75 / Fold change vs veh, WDR75 / RFU, AHCTF1 / Fold change vs veh, AHCTF1 / RFU, TFRC / Fold change vs veh, TFRC / RFU, ZDHHC17 / Fold change vs veh, ZDHHC17 / RFU, NOM1 / Fold change vs veh, NOM1 / RFU, ARL8B / Fold change vs veh, ARL8B / RFU, ZBTB11 / Fold change vs veh, ZBTB11 / RFU, TAMM41 / Fold change vs veh, TAMM41 / RFU, KIAA1704 /// LOC100996395 / Fold change vs veh, KIAA1704 /// LOC100996395 / RFU, ING1 / Fold change vs veh, ING1 / RFU, TRMT61B / Fold change vs veh, TRMT61B / RFU, FUBP3 / Fold change vs veh, FUBP3 / RFU, TP53 / Fold change vs veh, TP53 / RFU, TNKS2 / Fold change vs veh, TNKS2 / RFU, ZFP14 / Fold change vs veh, ZFP14 / RFU, ACTR2 / Fold change vs veh, ACTR2 / RFU, PPP3R1 / Fold change vs veh, PPP3R1 / RFU, PIK3R1 / Fold change vs veh, PIK3R1 / RFU, HNRNPA1 / Fold change vs veh, HNRNPA1 / RFU, RNF170 / Fold change vs veh, RNF170 / RFU, ZNF28 / Fold change vs veh, ZNF28 / RFU, RNGTT / Fold change vs veh, RNGTT / RFU, OGT / Fold change vs veh, OGT / RFU, BRD1 / Fold change vs veh, BRD1 / RFU, MARS / Fold change vs veh, MARS / RFU, ZNF655 / Fold change vs veh, ZNF655 / RFU, FAHD1 / Fold change vs veh, FAHD1 / RFU, BDP1 / Fold change vs veh, BDP1 / RFU, LRRCC1 / Fold change vs veh, LRRCC1 / RFU, ARID1A / Fold change vs veh, ARID1A / RFU, ZNF146 / Fold change vs veh, ZNF146 / RFU, ZNF330 / Fold change vs veh, ZNF330 / RFU, GPN3 / Fold change vs veh, GPN3 / RFU, C9orf123 / Fold change vs veh, C9orf123 / RFU, N4BP2L2 / Fold change vs veh, N4BP2L2 / RFU, ARFIP1 / Fold change vs veh, ARFIP1 / RFU, FAM179B / Fold change vs veh, FAM179B / RFU, BCL10 / Fold change vs veh, BCL10 / RFU, UHRF1BP1L / Fold change vs veh, UHRF1BP1L / RFU, BET1 / Fold change vs veh, BET1 / RFU, CNOT2 / Fold change vs veh, CNOT2 / RFU, ZNF268 / Fold change vs veh, ZNF268 / Fold change vs veh, ZNF507 / RFU, DGCR2 / Fold change vs veh, DGCR2 / RFU, WDSUB1 / Fold change vs veh, WDSUB1 / Fold change vs veh, HSP90B1 /// MIR3652 / RFU, ADSS / Fold change vs veh, ADSS / RFU, GK / Fold change vs veh, GK / RFU, ZNF148 / Fold change vs veh, ZNF148 / RFU, TAF9 / Fold change vs veh, TAF9 / RFU, SLC1A5 / Fold change vs veh, SLC1A5 / RFU, SLMO2 / Fold change vs veh, SLMO2 / RFU, ABCC4 / Fold change vs veh, ABCC4 / RFU, LOC101060439 /// RAP1B / Fold change vs veh, LOC101060439 /// RAP1B / RFU, RFX7 / Fold change vs veh, RFX7 / RFU, GTPBP10 / Fold change vs veh, GTPBP10 / RFU, CNEP1R1 / Fold change vs veh, CNEP1R1 / RFU, BIVM-ERCC5 /// ERCC5 / Fold change vs veh, BIVM-ERCC5 /// ERCC5 / RFU, ILF3 / Fold change vs veh, ILF3 / RFU 11762660_at / Fold change /veh 11762660_at / RFU VCAN (11757783_s_at) / Fold change /veh VCAN (11757783_s_at) / RFU DDX43 (11728927_at) / Fold change /veh DDX43 (11728927_at) / RFU KRT8 (11758188_x_at) / Fold change /veh KRT8 (11758188_x_at) / RFU NKD1 (11759106_at) / Fold change /veh NKD1 (11759106_at) / RFU SRD5A1 (11742802_a_at) / Fold change /veh SRD5A1 (11742802_a_at) / RFU TPSAB1 /// TPSB2 (11721975_s_at) / Fold change /veh TPSAB1 /// TPSB2 (11721975_s_at) / RFU GSTM3 (11746129_a_at) / Fold change /veh GSTM3 (11746129_a_at) / RFU IL23R (11737362_x_at) / Fold change /veh IL23R (11737362_x_at) / RFU TMEM51 (11727254_a_at) / Fold change /veh TMEM51 (11727254_a_at) / RFU PIWIL2 (11732686_x_at) / Fold change /veh PIWIL2 (11732686_x_at) / RFU ORM1 (11744905_x_at) / Fold change /veh ORM1 (11744905_x_at) / RFU CCDC152 (11743942_at) / Fold change /veh CCDC152 (11743942_at) / RFU ECM1 (11717891_a_at) / Fold change /veh ECM1 (11717891_a_at) / RFU IL23R (11748794_a_at) / Fold change /veh IL23R (11748794_a_at) / RFU TNFAIP8L3 (11732012_x_at) / Fold change /veh TNFAIP8L3 (11732012_x_at) / RFU MBOAT4 (11741988_at) / Fold change /veh MBOAT4 (11741988_at) / RFU 11764193_at / Fold change /veh 11764193_at / RFU TMEM53 (11763286_at) / Fold change /veh TMEM53 (11763286_at) / RFU MAGEB2 (11727129_at) / Fold change /veh MAGEB2 (11727129_at) / RFU TMEM200A (11744735_a_at) / Fold change /veh TMEM200A (11744735_a_at) / RFU CCDC152 (11751479_a_at) / Fold change /veh CCDC152 (11751479_a_at) / RFU FAM211A (11726209_a_at) / Fold change /veh FAM211A (11726209_a_at) / RFU RGS16 (11746705_a_at) / Fold change /veh RGS16 (11746705_a_at) / RFU VCAN (11755009_s_at) / Fold change /veh VCAN (11755009_s_at) / RFU RHOB (11743442_s_at) / Fold change /veh RHOB (11743442_s_at) / RFU RGS16 (11720943_a_at) / Fold change /veh RGS16 (11720943_a_at) / RFU RGS16 (11720944_at) / Fold change /veh RGS16 (11720944_at) / RFU, VPS4B / Fold change vs veh, VPS4B / RFU, CREB1 / Fold change vs veh, CREB1 / RFU, DNAJC13 / Fold change vs veh, DNAJC13 / RFU, GNAQ / Fold change vs veh, GNAQ / RFU, CDK5R1 / Fold change vs veh, CDK5R1 / RFU, ZRANB3 / Fold change vs veh, ZRANB3 / RFU, CUL4A / Fold change vs veh, CUL4A / RFU, CCNY / Fold change vs veh, CCNY / RFU, UFL1 / Fold change vs veh, UFL1 / RFU, COG3 / Fold change vs veh, COG3 / RFU, DIAPH2 / Fold change vs veh, DIAPH2 / RFU, SKA2 / Fold change vs veh, SKA2 / RFU, AFF3 / Fold change vs veh, AFF3 / RFU, LMF1 / Fold change vs veh, LMF1 / RFU, IPO11 / Fold change vs veh, IPO11 / RFU, DFFB / Fold change vs veh, DFFB / RFU, FOXP1 / Fold change vs veh, FOXP1 / RFU, CARD8 / Fold change vs veh, CARD8 / RFU, STRN3 / Fold change vs veh, STRN3 / RFU, ADK / Fold change vs veh, ADK / RFU, RASSF2 / Fold change vs veh, RASSF2 / RFU, WIPF1 / Fold change vs veh, WIPF1 / RFU, LARP1B / Fold change vs veh, LARP1B / RFU, RASA1 / Fold change vs veh, RASA1 / RFU, RB1 / Fold change vs veh, RB1 / RFU, PPFIA1 / Fold change vs veh, PPFIA1 / RFU, MAT2A / Fold change vs veh, MAT2A / RFU, CCT5 / Fold change vs veh, CCT5 / RFU, WDR92 / Fold change vs veh, WDR92 / RFU, CUX1 / Fold change vs veh, CUX1 / RFU, TTC7A / Fold change vs veh, TTC7A / RFU, TMEM135 / Fold change vs veh, TMEM135 / RFU, DEPTOR / Fold change vs veh, DEPTOR / RFU, CPM / Fold change vs veh, CPM / RFU, DNAJB6 / Fold change vs veh, DNAJB6 / RFU, CACNA2D3 / Fold change vs veh, CACNA2D3 / RFU, DTX4 / Fold change vs veh, DTX4 / RFU, TFCP2 / Fold change vs veh, TFCP2 / RFU, GMCL1 /// GMCL1P1 / Fold change vs veh, GMCL1 /// GMCL1P1 / RFU, AEBP2 / Fold change vs veh, AEBP2 / RFU, SNHG1 /// SNORD22 /// SNORD25 /// SNORD26 /// SNORD27 /// SNORD28 /// SNORD29 /// SNORD31 / Fold change vs veh, SNHG1 /// SNORD22 /// SNORD25 /// SNORD26 /// SNORD27 /// SNORD28 /// SNORD29 /// SNORD31 / Fold change (Aza/veh), C12orf56 (ProbeSet 11735607_a_at) / Fold change (ACY-1035/veh), C12orf56 (ProbeSet 11735607_a_at) / Fold change (Aza/veh), FGFR1OP (ProbeSet 11751329_s_at) / Fold change (ACY-1035/veh), FGFR1OP (ProbeSet 11751329_s_at) / Fold change (Aza/veh), VPS36 (ProbeSet 11739960_a_at) / Fold change (ACY-1035/veh), VPS36 (ProbeSet 11739960_a_at) / RFU SYPL1 (11715823_x_at) / Fold change /veh SYPL1 (11715823_x_at) / RFU IGFBP7 (11715501_s_at) / Fold change /veh IGFBP7 (11715501_s_at) / RFU REEP3 (11722064_at) / Fold change /veh REEP3 (11722064_at) / RFU IGLL1 (11728026_x_at) / Fold change /veh IGLL1 (11728026_x_at): dose or concentration left out as unconfirmed
Conditions: MV-4-11 cells, 48 hours

Nc1ccc(-c2cccs2)cc1NC(=O)c1ccc2c(c1)cc(C1CC1)n2CCN1CCOCC1 [ACY-1035]
RFU SYPL1 (11715823_x_at): 565.47 RFU
